Here are results for 18 compounds from patent US11000511B2, “Chemical compounds as antibiotics” (priority 2017, dated 2021).

One may read the Ki as a dissociation constant, usually derived from enzyme kinetics or from competition with a known ligand.

The target in experiment [1] is T1, purified LasB protein from P. aeruginosa (Pseudomonas aeruginosa, UniProt P14756).
T1 construct: purchased Merck or Charles River Laboratories
The experiment is described as follows: Fluorometric assay to determine Ki (Assay 1). The class given is biochemical. The settings on record: Ki (μM) Assay 1, purified LasB, substrate Abz-Ala-Gly-Leu-Ala-p-Nitro-Benzyl-Amide 250 μM, Ki calculated from IC50; inhibitor 0.006 to 200 μM. In short, it runs like this: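 Purified LasB (10 to 140 ng/ml) with 250 μM Abz-Ala-Gly-Leu-Ala-p-nitrobenzylamide in 50 mM Tris-HCl pH 7.4, 2.5 mM CaCl2, 0.01% Triton X100; hydrolysis read by fluorescence (Ex 340/Em 415 nm) over 30 min at 37° C. Inhibitor 2-fold series, 0.006–200 μM (Assay 1) or 0.0016–200 μM (Assay 2); IC50 converted to Ki via Ki=IC50/(1+[S]/Km), Km=214 μM.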

Experiment [2] addresses T2, LasB elastase activity in dialysed supernatant from P. aeruginosa strain PA01 (Pseudomonas aeruginosa, UniProt P14756).
T2 construct: uses as source of enzyme dialysed supernatant from P. aeruginosa; endogenous in cells; host or cells: P. aeruginosa strain PA01 culture supernatant, filtered and dialysed
The experiment is described as follows: Elastin Congo Red assay to determine % inhibition (Assay 1). To be noted: for inhibition at 50 µM: read-out: Elastin hydrolysis % inhibition @ 50/25 μM inhibitor concentration Assay 1. It counts as biochemical. The procedure, abridged: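 Enzyme source: PA01 culture supernatant (19 h growth), filtered and dialysed into 50 mM Tris pH 7.4, 2.5 mM CaCl2. Mixed 1:1 with Elastin Congo Red (20 mg/mL) plus 0.01% Triton X-100 and compound (routinely 50 and 25 μM), 24 h at 37 °C shaking. Dye release at OD520 gives % inhibition versus DMSO.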

SMILES strings stand for the structures. Where only a bound is given, the exact number is not on record here.

T1 sequence (P14756 198-498): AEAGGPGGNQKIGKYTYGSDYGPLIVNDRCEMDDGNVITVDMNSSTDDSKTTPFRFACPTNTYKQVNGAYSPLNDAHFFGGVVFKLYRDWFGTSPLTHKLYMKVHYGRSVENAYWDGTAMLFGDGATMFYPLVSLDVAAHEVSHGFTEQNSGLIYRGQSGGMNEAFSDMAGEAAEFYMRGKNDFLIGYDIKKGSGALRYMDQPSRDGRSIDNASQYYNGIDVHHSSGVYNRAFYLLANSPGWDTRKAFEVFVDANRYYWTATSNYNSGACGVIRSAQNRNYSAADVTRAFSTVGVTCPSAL
T2 sequence (P14756 198-498): as above

Take `NC1CN(c2ccc3sc(CNC(=O)C4(CC(=O)O)Cc5ccccc5C4)nc3c2)C1` [Example 73, 2-[2-[[5-(3-aminoazetidin-1-yl)-1,3-benzothiazol-2-yl]methylcarbamoyl]indan-2-yl]acetic acid]: the Ki in experiment [1] was less than 0.3 µM. Also, the inhibition at 50 µM in experiment [2] was greater than 60%.
Turning to `NCCc1ccc2nc(CNC(=O)C3(CC(=O)O)Cc4ccccc4C3)sc2c1` [Example 80, 2-[2-[[6-(2-aminoethyl)-1,3-benzothiazol-2-yl]methylcarbamoyl]indan-2-yl]acetic acid], the inhibition constant (Ki) in experiment [1] was 0.3 to 2 µM. In addition, in experiment [2], the inhibition at 50 µM is greater than 60%.
On to `O=C(O)CC1(C(=O)NCc2c[nH]c3ccccc23)Cc2ccccc2C1` [Example 26, 2-[2-(1H-indol-3-ylmethylcarbamoyl)indan-2-yl]acetic acid], for which the Ki in experiment [1] was 2 to 10 µM. The inhibition at 50 µM in experiment [2] lay within 30 to 60%.
In the case of `NCC1CN(c2ccc3nc(CNC(=O)C4(CC(=O)O)Cc5ccccc5C4)sc3c2)C1` [Example 99, 2-[2-[[6-[3-(aminomethyl)azetidin-1-yl]-1,3-benzothiazol-2-yl]methylcarbamoyl]indan-2-yl]acetic acid], the Ki in experiment [1] is less than 0.3 µM. In experiment [2], the inhibition at 50 µM was greater than 60%.
The like results for `C[N+](C)(C)CCCc1ccc2sc(CNC(=O)C3(CC(=O)[O-])Cc4ccccc4C3)nc2c1` [Example 90, 2-[2-[[5-[3-(trimethylammonio)propyl]-1,3-benzothiazol-2-yl]methylcarbamoyl]indan-2-yl]acetate] were, in that order, 0.3 to 2 µM and greater than 60%.
For `CN1CCN(c2ccc3nc(CNC(=O)C4(CC(=O)O)Cc5ccccc5C4)sc3c2)CC1` [Example 42, 2-[2-[[6-(4-methylpiperazin-1-yl)-1,3-benzothiazol-2-yl]methylcarbamoyl]indan-2-yl]acetic acid], in experiment [1], the Ki is 0.3 to 2 µM. Also, the inhibition at 50 µM in experiment [2] was greater than 60%.
For the compound `C[N+](C)(C)CC#Cc1ccc2nc(CNC(=O)C3(CC(=O)[O-])Cc4ccccc4C3)sc2c1` [Example 86, 2-[2-[[6-[3-(trimethylammonio)prop-1-ynyl]-1,3-benzothiazol-2-yl]methylcarbamoyl]indan-2-yl]acetate], the Ki in experiment [1] is less than 0.3 µM. Besides, the inhibition at 50 µM in experiment [2] was greater than 60%.
As for `COc1ccc2nc(CNC(=O)C3(CC(=O)O)Cc4ccccc4C3)sc2c1` [Example 32, 2-[2-[(6-methoxy-1,3-benzothiazol-2-yl)methylcarbamoyl]indan-2-yl]acetic acid], the Ki in experiment [1] was less than 0.3 µM. Also, in experiment [2], the inhibition at 50 µM is greater than 60%.
In the same order, the values of `C[N+](C)(C)CCCc1ccc2nc(CNC(=O)C3(CC(=O)O)Cc4ccccc4C3)sc2c1` [Example 37, 3-[2-[[[2-(carboxymethyl)indane-2-carbonyl]amino]methyl]-1,3-benzothiazol-6-yl]propyl-trimethyl-ammonium] are 0.3 to 2 µM and greater than 60%.
`CN(C)CCNc1ccc2nc(CNC(=O)C3(CC(=O)O)Cc4ccccc4C3)sc2c1` [Example 105, 2-[2-[[6-[2-(dimethylamino)ethylamino]-1,3-benzothiazol-2-yl]methylcarbamoyl]indan-2-yl]acetic acid]: in experiment [1], the inhibition constant (Ki) is 0.3 to 2 µM. Moreover, the inhibition at 50 µM in experiment [2] lay in the range of 30 to 60%.
For `O=C(O)CC1(C(=O)NCCc2cc3ccccc3o2)Cc2ccccc2C1` [Example 19, 2-[2-[2-(benzofuran-2-yl)ethylcarbamoyl]indan-2-yl]acetic acid], the Ki in experiment [1] was 2 to 10 µM. In addition, in experiment [2], the inhibition at 50 µM was in the range of 15 to 30%.
In the case of `CN(C)C1CN(c2ccc3sc(CNC(=O)C4(CC(=O)O)Cc5ccccc5C4)nc3c2)C1` [Example 74, 2-[2-[[5-[3-(dimethylamino)azetidin-1-yl]-1,3-benzothiazol-2-yl]methylcarbamoyl]indan-2-yl]acetic acid], in experiment [1], the inhibition constant (Ki) was less than 0.3 µM. Besides, in experiment [2], the inhibition at 50 µM was greater than 60%.
Take `CC(NC(=O)C1(CC(=O)O)Cc2ccccc2C1)c1cc2ccccc2o1` (single isomer, unassigned) [Example 59, 2-[2-[[(1S*)-1-(benzofuran-2-yl)ethyl]carbamoyl]indan-2-yl]acetic acid]: the inhibitory constant (Ki) in experiment [1] is 0.3 to 2 µM. The “Elastin hydrolysis % inhibition @ 50/25 μM inhibitor concentration Assay 1” value in experiment [2] (50 μM inhibitor concentration, elastin congo red, 24 hours, OD520) is listed as “B (30 to 60% inhibition)”.
For the compound `NC/C=C/c1ccc2nc(CNC(=O)C3(CC(=O)O)Cc4ccccc4C3)sc2c1` [Example 39, 2-[2-[[6-[(E)-3-aminoprop-1-enyl]-1,3-benzothiazol-2-yl]methylcarbamoyl]indan-2-yl]acetic acid], in experiment [1], the inhibitory constant (Ki) is less than 0.3 µM. The inhibition at 50 µM in experiment [2] is greater than 60%.
For the compound `COC(=O)[C@H](Cc1c[nH]c2ccccc12)NC(=O)C1(CC(=O)O)Cc2ccccc2C1` [Example 53, (S)-2-(2-((3-(1H-indol-3-yl)-1-methoxy-1-oxopropan-2-yl)carbamoyl)-2,3-dihydro-1H-inden-2-yl)acetic acid], in experiment [1], the Ki was 0.3 to 2 µM. Moreover, the inhibition at 50 µM in experiment [2] is greater than 60%.
Regarding `Cc1cccc2sc(CNC(=O)C3(CC(=O)O)Cc4ccccc4C3)nc12` [Example 65, 2-(2-(((4-methylbenzo[d]thiazol-2-yl)methyl)carbamoyl)-2,3-dihydro-1H-inden-2-yl)acetic acid], the Ki in experiment [1] is less than 0.3 µM. Further, the inhibition at 50 µM in experiment [2] is greater than 60%.
For the compound `O=C(O)CC1(C(=O)NCc2nc3c(N4CCOCC4)cccc3s2)Cc2ccccc2C1` [Example 66, 2-(2-(((4-morpholinobenzo[d]thiazol-2-yl)methyl)carbamoyl)-2,3-dihydro-1H-inden-2-yl)acetic acid], in experiment [1], the inhibitory constant (Ki) is 0.3 to 2 µM. In addition, the inhibition at 50 µM in experiment [2] is greater than 60%.
Turning to `O=C(O)CC1(C(=O)N[C@@H](Cc2ccc(O)cc2)C(=O)O)Cc2ccccc2C1` [Example 49, (2-(carboxymethyl)-2,3-dihydro-1H-indene-2-carbonyl)-L-tyrosine], the Ki in experiment [1] is 0.3 to 2 µM. Further, the inhibition at 50 µM in experiment [2] is greater than 60%.
